Test results from patent US7135299B2, “Catalase-inactivating compounds and the use thereof” (priority 2001, dated 2006).

Key:
[1] = test system: catalase from Aspergillus niger / catalase from microorganisms (as active intracellular catalase); test: Catalase inactivation test: oxygen evolution from hydrogen peroxide measured as pressure in a closed tube, active intracellular catalase; format: biochemical, Aspergillus niger; various bacteria and/or fungi; conditions: 35 units of catalase from Aspergillus niger or from microorganisms in 1 ml sample, 7 ml solution of the title compound, 0.23 g hydrogen peroxide 30%, 15 minutes at room temperature
Excerpt: (§1) The following reagents are provided: • catalase from ox liver (as active endogenous catalase) • catalase from Aspergillus niger (as active intracellular catalase) • catalase from microorganisms^(*) (as active intracellular catalase) • antifoam (RD® from Dow Corning) • hydrogen peroxide (Perhydrol® 30% from Merck) ^(*)various bacteria and/or fungi
(§2) Each sample contains in each case 35 units of catalase from ox liver or from Aspergillus niger or from microorganisms per ml of distilled water. The 1 ml sample is put in a 15 ml tube (Vacutainer® 16×125 mm from Becton Dickinson), and in each case 7 ml of the aforementioned solution of the title compound are added and mixed therewith (Vortex® Genie 2 mixer from Merck). Then 1 drop of said antifoam is added and mixing is repeated. Thereafter 0.23 g of said hydrogen peroxide is added, and the tube is immediately made gas-tight with a stopper made of chemical-resistant elastic plastic (Viton® from Du Pont de Nemours), briefly (for a few seconds) ventilated with the aid of a hollow needle (Ø1 mm hypodermic needle) piercing the stopper and, immediately thereafter, closed gas-tight again by withdrawing the hollow needle from the stopper. The tube which has been closed gas-tight is left to stand at room temperature for 15 minutes. […] The pressure in the tube is then measured (cf. the description hereinafter of the preferred pressure gage). […]

[2] = molecular target: T1, catalase from ox liver (as active endogenous catalase) (Bos taurus, UniProt P00432); test: Catalase inactivation test: oxygen evolution from hydrogen peroxide measured as pressure in a closed tube, active endogenous catalase; format: biochemical; conditions: 35 units of catalase from ox liver in 1 ml sample, 7 ml solution of the title compound, 0.23 g hydrogen peroxide 30%, 15 minutes at room temperature
T1 construct: catalase from ox liver (as active endogenous catalase); from tissue; host or cells: ox liver
T1 sequence (P00432 2-527 limits assumed): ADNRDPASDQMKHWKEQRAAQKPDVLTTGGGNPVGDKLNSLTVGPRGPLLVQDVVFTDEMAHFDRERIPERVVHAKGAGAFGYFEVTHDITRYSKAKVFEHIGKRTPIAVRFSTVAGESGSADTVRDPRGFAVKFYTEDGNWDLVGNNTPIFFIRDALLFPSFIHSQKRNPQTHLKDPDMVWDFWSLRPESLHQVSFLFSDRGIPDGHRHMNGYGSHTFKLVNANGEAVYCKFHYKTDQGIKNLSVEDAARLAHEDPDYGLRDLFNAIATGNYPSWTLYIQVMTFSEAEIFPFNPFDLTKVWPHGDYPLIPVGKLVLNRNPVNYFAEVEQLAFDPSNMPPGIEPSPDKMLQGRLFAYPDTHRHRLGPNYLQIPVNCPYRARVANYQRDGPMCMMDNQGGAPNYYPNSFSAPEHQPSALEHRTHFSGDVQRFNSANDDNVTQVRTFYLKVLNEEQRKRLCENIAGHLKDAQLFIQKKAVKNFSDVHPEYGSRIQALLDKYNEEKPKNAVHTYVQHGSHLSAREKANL
Excerpt: as §1, §2

CH2═CH—COO—SO2—O—C12H25
catalase activity by oxygen evolution (pressure in the tube) [1]: the pressure in the tube increases
catalase activity by oxygen evolution (pressure in the tube) [2]: the pressure in the tube does not increase
